Results from publication PMC8073907, “Peptide targeting of lysophosphatidylinositol-sensing GPR55 for osteoclastogenesis tuning” (Cell Communication and Signaling : CCS, 2021).

Tests used:
[1] = test system: Gpr55 mRNA in RAW264.7 cells; assay: Modulation of Gpr55 mRNA levels by receptor ligands in RANKL-treated RAW264.7 cells; assay type: cell-based, murine; conditions: 72 h; for Gpr55 mRNA levels (fold non-differentiated): 30 ng/mL RANKL, alone or + 1 μM soybean LPI, 0.5 μM ML-191, 0.5 μM CBD or 30 μM O1918, means ± SEM of at least three independent experiments
Protocol: (§1) Total RNA was extracted using RNeasy isolation kits, cDNAs were obtained using QuantiTect Reverse Transcription kits, and real-time PCRs were performed with QuantiTect SYBR Green PCR kits (all from Qiagen, Hilden, Germany), according to the manufacturer instructions. The primers used for the real-time PCRs and their annealing temperatures are listed in the Additional file 1: Table S1. Human hypoxanthine phosphoribosyltransferase 1 (HPRT1) or murine β2-microglobulin were followed as housekeeping genes. The real-time PCR programme consisted of an initial 15 min at 95 °C, and then 45 cycles as follows: 94 °C for 15 s, annealing temperature of each primer for 30 s, and 72 °C for 30 s. The real-time PCR machine used was a LightCycler 480 Instrument II (Roche, Indianapolis, IN, USA).
(§2) For the osteoclastogenesis in-vitro assay, RAW264.7 cells were plated in differentiation medium (α-MEM with 10% heat-inactivated FBS, 2 mM L-glutamine, 100 U/mL penicillin, and 100 ug/mL streptomycin) at a density of 5 × 10^3 cells/well in 24-well plates on coverslips for morphological analysis, or at 2 × 10^4 cells/well in six-well plates for RNA extraction. Twenty-four hours later and every 48 h, the medium was replaced and the cells were treated with 15–30 ng/mL RANKL with DMSO and/or PBS as carriers, or with GPR55 antagonists/ agonists (0.5 µM ML-191, 30 µM O1918, 0.5 µM CBD, 0.5 μM CID16020046 1 µM soybean LPI, 1 μM ML-184), or with the peptides (150 nM peptide-P1; or the irrelevant peptide, Irr_P). Twenty-four hours after the last addition, the cells were fixed with 4% paraformaldehyde for morphological analyses or harvested for RNA extraction (see above).

[2] = test system: HA-GPR55 in HEK293T cells; assay: LPI-induced ERK1/2 activation in GPR55-transfected HEK293T cells; assay type: cell-based, human; conditions: soybean or synthetic LPI, 100 nM to 10 µM, 3–30 min; different transfection methods
Source text: The construct of haemagglutinin (HA)-tagged human GPR55 in pcDNA3 (HA-GPR55) was a gift from Prof. K. Mackie, Indiana University, Bloomington, IN, USA [39], while the construct ss-3 × HA-GPR55 in pcDNA3.1 (ssGPR55) with a triple HA tag at the N-terminus and an optimised signal sequence (ss, derived from amino acids 1–33 of the human growth hormone: […]) for efficient surface expression was from Prof. A. Irving, Dundee University, UK [40]. For both constructs, mutations were introduced by site-directed mutagenesis using QuickChange kits (Stratagene, La Jolla, CA, USA), according to the manufacturer instructions. The primers for the K80A mutation were 5′-[…]-3′ and 5′-[…]-3′ (Tm, 70.6 °C), and for Q87A were 5′-[…]-3′ and 5′-[…]-3′ (Tm, 73.1 °C).
For GPR55 overexpression, HEK293T cells were plated in their growth medium without antibiotics at 2.6 × 10^5 cells/well in 12-well plates, and 24 h later, the cells were transfected with 1 µg cDNA/well using Lipofectamine 2000, according to the manufacturer instructions. The pcDNA3 empty vector or that coding for human HA-GPR55 wild-type or its mutants HA-GPR55-K80A and HA-GPR55-Q87A were used.
Twenty-four hours after transfection (HEK293T, HeLa cells or clones) or 72 h after interference (RAW264.7 cells), the cells were washed twice with HBSS^++, serum deprived (HEK293T cells for 4 h in DMEM; HeLa cells and clones for 2 h in MEM plus 2 mM glutamine and 25 mM HEPES; RAW264.7 cells for 2 h in DMEM), washed once again with HBSS^++, incubated in stimulation buffer (HBSS^++ with 10 mM HEPES, 0.4% faf-BSA for HEK293T cells; HBSS^++ with 25 mM HEPES and 0.01% faf-BSA for HeLa cells, clones, and RAW264.7 cells) in the absence or presence of stimuli, at 37 °C for the indicated times. […]
Protein lysates were subjected to SDS-PAGE, and after electrophoresis, the proteins were transferred to a nitrocellulose membrane (PerkinElmer Life Science, Boston, MA, USA). […] The membranes were then washed twice with T-TBS and once with TBS for 5 min, and the signals were detected by ECL (Amersham Pharmacia, Piscataway, NJ, USA). […]

[3] = test system: RAW264.7 cells; assay: RANKL-induced transcription of osteoclastogenesis markers in RAW264.7 cells (real-time PCR); assay type: cell-based, murine; conditions: 72 h, 15–30 ng/mL RANKL, 30 µM O1918
Protocol: as §1
For transient interference of Gpr55, RAW264.7 cells were plated at 6 × 10^5 cells/well in six-well plates in growth medium without antibiotics. Twenty-four hours later, the cells were transfected with 250 pmol/well non-targeting small-interfering (si)RNAs (si-NT; siGENOME siRNA Pool #2; D-001206-14; Dharmacon, Chicago, IL, USA) or Gpr55-specific siRNAs (si-GPR55; siGENOME mouse GPR55 SMART pool; M-043590-01; Dharmacon) using Lipofectamine LTX and Plus Reagent, according to the manufacturer instructions. Twenty-four hours later, the cells were plated for the different assays or for RNA extraction. The efficiency of interference was monitored by real-time PCR after 72 h of interference, using the primers listed in the Additional file 1: Table S1. β2-microglobulin was followed as a housekeeping gene.
as §2

[4] = test system: endogenous GPR55 (HeLa); assay: LPI-induced ERK/p38 phosphorylation in shCTRL-HeLa clones (Western blot); assay type: cell-based, human
Protocol: For stable interference of GPR55, HeLa cells were plated at 1.5 × 10^5 cells/well in six-well plates in growth medium without antibiotics, and 24 h later, the cells were transfected with 1.7 µg/well OmicsLink short hairpin (sh)RNA expression clone CSHCTR001-CU6 (shCTRL) or clone HSH022476-3-CU6 (shGPR55) from GeneCopoeia (Rockville, MD, USA), using Lipofectamine 2000, according the manufacturer instructions. Forty-eight hours after transfection, HeLa clones stably expressing shRNAs were selected in growth medium containing 0.3 µg/mL puromycin. The efficiency of interference was monitored by real-time PCR using the primers listed in the Additional file 1: Table S1. HPRT1 was followed as a housekeeping gene.
Twenty-four hours after transfection (HEK293T, HeLa cells or clones) or 72 h after interference (RAW264.7 cells), the cells were washed twice with HBSS^++, serum deprived (HEK293T cells for 4 h in DMEM; HeLa cells and clones for 2 h in MEM plus 2 mM glutamine and 25 mM HEPES; RAW264.7 cells for 2 h in DMEM), washed once again with HBSS^++, incubated in stimulation buffer (HBSS^++ with 10 mM HEPES, 0.4% faf-BSA for HEK293T cells; HBSS^++ with 25 mM HEPES and 0.01% faf-BSA for HeLa cells, clones, and RAW264.7 cells) in the absence or presence of stimuli, at 37 °C for the indicated times. Incubations were terminated by washing the cells twice with cold HBSS^++, and the analyses were performed as reported below.
Cell lysates were obtained by scraping the cells into phospho-lysis buffer: 50 mM Tris–HCl, pH 7.5, 100 mM NaCl, 5 mM EDTA, 1% Triton X-100, 50 mM NaF, 40 mM β-glycerophosphate, 200 µM sodium orthovanadate, plus protease and phosphatase inhibitors (Roche). Following gentle homogenisation by 20 passages through a 26-gauge needle, the lysates were centrifuged at 10,000×g for 5 min at 4 °C, and the supernatants were collected.
Protein lysates were subjected to SDS-PAGE, and after electrophoresis, the proteins were transferred to a nitrocellulose membrane (PerkinElmer Life Science, Boston, MA, USA). For immunoblotting, the membranes were blocked with 5% non-fat milk in TBS (10 mM Tris–HCl, pH 7.4, 10 mM NaCl) plus 0.1% Tween-20 (T-TBS) for 30 min at room temperature, and incubated with primary antibodies in T-TBS plus 3% BSA for 2 h at room temperature, or overnight at 4 °C. The membranes were washed twice in T-TBS for 7 min, and then incubated with secondary antibodies conjugated to horseradish peroxidase (1:5,000) (Calbiochem, San Diego, CA, USA) in T-TBS with 5% non-fat milk for 30 min at room temperature. The membranes were then washed twice with T-TBS and once with TBS for 5 min, and the signals were detected by ECL (Amersham Pharmacia, Piscataway, NJ, USA). The rabbit anti-phospho AKT (Ser473), anti-phospho p38 (Thr180/Tyr182), anti-phospho p42/44 (Thr202/Tyr204), anti-p38 (all at dilution 1:1000) were from Cell Signaling Technology (Danvers, MA, USA). The rabbit anti-AKT (B-1), and anti-p42/44 (ERK1; K-23) were from Santa Cruz Biotechnology.

[5] = 0.5 µM ML-191, 0.5 µM CBD, four independent experiments
[6] = 10 µM soybean LPI, 30 µM ML-191, 10 µM CBD or 10 µM O1918

Row | Compound | Gpr55 mRNA levels (fold non-differentiated) [1] [fold non-differentiated] | ERK1/2 activation in GPR55-transfected compared to empty-vector-transfected cells [2] | effect on RANKL-induced Mmp-9 mRNA ([3]; 0.5 µM CBD) | effect on RANKL-induced Ctr mRNA [3, 5] | reduction of RANKL-induced Nfatc1 mRNA [3, 5] [%] | reduction of RANKL-induced Trap mRNA [3, 5] [%] | effect on RANKL-induced Cathepsin-k mRNA [3] | inhibition of LPI stimulation of both ERK2 and p38 phosphorylation at 5 min [4, 6] | inhibition of LPI-induced stimulation of ERK1/2 [4, 6] | basal ERK2 activation level (without LPI) ([4]; 30 µM ML-191 or 10 µM O1918) | effect on RANKL-stimulated Gpr55 mRNA levels ([1]; 30 μM O1918)
1 | L-α-lysophosphatidylinositol sodium salt from soybean [soybean LPI] | 24.5 ± 2.1 | inconsistent ERK1/2 activation |  |  |  |  |  |  |  |  | 
2 | C=C(C)[C@@H]1CCC(C)=C[C@H]1c1c(OC)cc(C)cc1OC [O1918] | 15.8 ± 3.1 |  | not affected | not affected | 40 | 40 | not affected | inhibited LPI stimulation of both ERK2 and p38 phosphorylation at 5 min | abolished | significantly increased basal activation levels | did not show any effects
